Test results published in patent US20130072466A1, “COMPOSITION CONTAINING PLACENTA EXTRACTS” (Industry-Academic Cooperation Foundation, Yeungnam …, priority 2010, published 2013).

Key:
reproductive cycle = experiment: Reproductive cycle change assay by vaginal smearing; type: in vivo, CD-1 mice; settings: subcutaneous injection for 14 days, FIG. 9
Method: (§1) The placenta 1 extract prepared according to the example was dissolved with 100% ethanol as a primary solvent, and sesame oil for body injection was added thereto to obtain a 1 g/ml concentration, and the resultant product was diluted into 0.1% concentration. Herein, 100% was defined as a case in which the extract was diluted with sesame oil by a factor of 100. The diluted extract was subcutaneously injected for 14 days to 6-8 week-old CD-1 mice which had been raised under physiological conditions (6 mice per each group).
To identify effects of the placenta extract on a reproductive cycle, a reproductive cycle was assayed by vaginal smearing during the administration of the placenta extract.

[1] = system: CD34 hematopoietic stem cells; experiment: CD34-marked numerical change assay of hematopoietic stem cells using FACS; type: in vivo, CD-1 mouse; settings: 0.1% placenta extract, subcutaneous, 14 days, FIG. 10
Method: as §1
Whether the placenta extract promotes proliferation of hematopoietic stem cells was identified with CD34 that is a marking factor. CD-1 mouse treated with 0.1% placenta extract was sacrificed to collect a thighbone, and then, a bone marrow was extracted therefrom by using PBS solution. Thereafter, the bone marrow was reacted with CD34 specific antibody, and then, CD34 hematopoietic stem cells were counted by using a fluorescent activated cell sorter.

red blood cells = experiment: Numerical change assay of red blood cells in peripheral blood; type: in vivo, CD-1 mice; settings: 0.1% placenta extract, subcutaneous, 14 days; compared to the control; FIG. 11
Method: as §1
The cells were treated with 0.1% placenta extract under the same conditions as described above, and then, peripheral blood was collected, and then, 1 mg/ml of EDTA was added thereto to prevent blood coagulation. Then, the number of red blood cells was counted by using an analyzer.

`C[C@]12CC[C@H]3[C@@H](CCC4=CC(=O)CC[C@@H]43)[C@@H]1CC[C@@H]2O` [nandrolone] was tested, and the reproductive cycle periodicity (reproductive cycle) was “a reproductive cycle gradually became non-periodic”, the “number of CD34 hematopoietic stem cells in bone marrow” value [1] was “the number of hematopoietic stem cells significantly increased” and the “number of red blood cells in peripheral blood” value (red blood cells) was “the number of red blood cells significantly increased”.
